The results in this text go back to patent US20250295717A1, “RE[…] OF R[…] VIRUS, COMBINATION, AND APPLICATION THEREOF” (NEUREGEN BIOTHERAPEUTICS (SHANGHAI) CO. LTD, priority 2022, published 2025).

Experiment [1] relates to human glioma tissue PDX. Kind of experiment: Patient-derived tumor xenograft (PDX) model from human glioma tissue (Example 7). It counts as in vivo, mouse. How it is done: To further validate the combined effect of oncolytic viruses and redifferentiation therapy, this implementation was tested in a patient-derived tumor xenograft (PDX) model constructed from human glioma tissue. PDX tissues were inoculated into the armpits of nude mice for passaging, and when they reached the logarithmic growth phase, they were re-inoculated into the armpits of nude mice. When the tumor grew to approximately 100 mm^3, appropriate tumor-bearing mice were randomly grouped. After grouping, treatment commenced, with the PBS group serving as the control. The Ad5-AN group received a dose of 1×10^9 PFU, while the temozolomide (TMZ) gavage group received 15 mg/kg once daily for five days, followed by two days off. Additionally, there was a combination treatment group of Ad5-AN and temozolomide, with Ad5-AN administered every two days for a total of five doses. Tumor volume was measured every three days, and later, the animals were euthanized to weigh the tumors and perform biochemical and molecular analyses.

Experiment [2] deals with human glioma U87 cells subcutaneous implantation. The experiment is described as follows: Subcutaneous U87 glioma model, combination with temozolomide (Example 5). The format is in vivo, mouse. Here is the method:
(§1) For the subcutaneous glioma model, human U87 glioma cells were cultured, and during the logarithmic growth phase, they were inoculated into the axillae of nude mice. After two passages, the tumor tissue was collected under sterile conditions, and the tumor mass was cut into uniform small pieces approximately the size of grains of rice, which were then inoculated subcutaneously in the axillae of nude mice using an implantation needle. Once the tumor grew to approximately 100 mm^3, the mice were randomly grouped, and the treatment began. All samples were dissolved in PBS, with an injection volume of 50 μL/tumor. The length and width of the tumor were measured every three days, and the tumor volume was calculated using the formula: […]
In this example, a subcutaneous implantation model using human glioma U87 cells in BALB/c nu/nu mice was adopted. U87 human glioblastoma cells were inoculated into the armpits of the nude mice during the logarithmic growth phase. When the tumor grew to approximately 100 mm^3, appropriate tumor-bearing mice were randomly grouped. After grouping, treatment commenced, with the PBS group serving as the control. The Ad5-AN group received a dose of 1×10^9 PFU, while the temozolomide (TMZ) gavage group received 15 mg/kg once daily for five days, followed by two days off. Additionally, there was a combination treatment group of Ad5-AN and temozolomide (Ad5-AN+TMZ), with Ad5-AN administered every two days for a total of five doses. Tumor volume was measured every three days, and later, the animals were euthanized to weigh the tumors and perform biochemical and molecular analyses.

Experiment [3] has as its system glioma cells (U87-luc) implanted into the brain. Kind of experiment: Brain orthotopic glioma model U87-luc (Example 6). The format is in vivo, mouse. The following applies: Ad5-AN 1×10^9 PFU every four days, three doses, TMZ 15 mg/kg, PBS group 22.3 days. Here is the method: For the orthotopic glioma model, 7-week-old NOD-scid mice were used. Human glioma cells, either induced with […] or not induced, were centrifuged to remove the supernatant, resulting in a cell density of approximately 2.5×10^5 cells/μL. A total of 2 μL (5×10^5 cells) was implanted into the striatum of each mouse. After three weeks, histological analysis or viral injection was performed, followed by immunohistochemical detection.
In this example, glioma cells (U87-luc) were first implanted into the brain (5×10^5 cells). After 7 days of implantation, the mice were grouped for treatment, with the PBS group serving as the control. The Ad5-AN group received a dose of 1×10^9 PFU, while the temozolomide (TMZ) gavage group received 15 mg/kg once daily for five days, followed by two days off. Additionally, there was a combination treatment group of Ad5-AN and temozolomide, with Ad5-AN administered every four days for a total of three doses.

Experiment [4] has as its system human glioblastoma U87 ectopic implantation. Kind of experiment: Human glioblastoma U87 BALB/CA-nu mouse ectopic implantation model, recombinant HSV (Example 8). The format is in vivo. How it is done: as §1
In this implementation, type 1 herpes simplex virus (HSV) was used as an oncolytic virus vector, with fragments from human Ascl1 (SEQ ID No. 11) and the coding sequence (CDS) of human Ngn2 (SEQ ID No. 15) inserted to achieve efficient co-expression of Ascl1 and Ngn2. After packaging and purifying the recombinant HSV, tests were conducted using a human glioblastoma U87 BALB/CA-nu mouse ectopic implantation model. […] Tumor volume was measured every three days, and later, the animals were euthanized to weigh the tumors and perform biochemical and molecular analyses. […]

Where [5] appears, read: U87 subcutaneous, extended experiment.

As to `Cn1nnc2c(C(N)=O)ncn2c1=O` [temozolomide], in experiment [1], the “time at which tumors gradually relapsed post-treatment” value is “around 45 days” and the “time at which tumors reached nearly 2000 mm^3” value is recorded as “around 72 days”. Besides, the “tumors relapsed and began to regrow” value in experiment [1] (around 45 days post-treatment) is listed as 6/6. In addition, in experiment [2] (setting [5]), the “time at which tumor growth approached 2000 mm^3” value is given as “around 60 days” and the “time at which tumors gradually relapsed post-treatment” value is reported as “around 35 days”. In addition, the “tumor recurrence after 56 days” value in experiment [2] (mice with recurrence / seven mice, FIG. 5) is listed as 7/7. Moreover, in experiment [3], the average survival was 56.8 days. In addition, the tumor volume decrease in experiment [4] (after 10 days of treatment, HSV 2×10^6 PFU every two days, five doses, TMZ 15 mg/kg) was determined as 73.6%. In addition, the tumor recurrence in experiment [4] (after two months) is 6/6.
